Series [1] has as its system HCV genotype 1b replicon NS5A Y93C. Briefly: Transient HCV 1b replicon, NS5A mutant Y93C. The class given is cell-based. The note with it: Hepatitis C virus, read-out: EC50 Y93C. From the text: (§1) In a transient set-up, a Huh-7 lunet hepatoma cell line was transiently transfected with an autonomously replicating RNA encoding a bi-cistronic expression construct. This construct comprises a firefly luciferase reporter gene preceding the NS3-NS5B subgenomic region of HCV (genotype 1a H77 or 1b Con1). Translation of the HCV subgenomic region is mediated by an internal ribosome entry site of encephalomyocarditis virus. The construct is furthermore flanked by 5′ and 3′ untranslated regions of HCV (genotype 1a H77 or 1b Con 1, respectively), which allow for replication of the RNA.
(§2) In addition to the wild-type constructs, site-directed mutations were introduced into the transient HCV genotype 1b replicon in the gene encoding for the non-structural protein 5A (NS5A). More precisely, amino acid residues 28, 30, 31 and 93 in NS5A were independently altered.
(§3) Cells were plated in 384 well plates in the presence of test and control compounds, which were added in various concentrations. Following an incubation of two days, replication of the HCV subgenomic replicon RNA was measured by assaying luciferase activity (using standard luciferase assay substrates and reagents and a Perkin Elmer ViewLux™ ultraHTS microplate imager). HCV subgenomic replicon containing cells in the control cultures have high luciferase expression in the absence of any inhibitor. The inhibitory activity of the compound was monitored, enabling a dose-response curve for each test compound. EC50 values were then calculated, which represent the amount of compound required to decrease the level of detected luciferase activity by 50%, or more specifically, to reduce the ability of the genetically linked HCV subgenomic RNA to replicate.
In general terms: Replicon systems follow genome replication, usually without infectious particles.

Series [2] in a line: Pharmacokinetic analysis after single oral administration, liver concentration. The class given is in vivo. Particulars: male Sprague-Dawley rats, 10 mg/kg oral, solution in PEG400. The method, then:
Compounds were dosed orally as a solution in PEG400 to male Sprague-Dawley rats at a dose level of 10 mg/kg. At serial time points, after dosing, the animals were sacrificed and liver samples collected. All samples were analyzed using a qualified research LC-MS/MS method to determine the concentration of the tested compounds in liver. Non-compartmental analysis using the lin/log trapezoidal rule was performed using WinNonlin™ Professional (Version 5.2.1).

A short description of series [3]: Counterscreen Huh7-CMV-Luc. The class given is cell-based. The note with it: human. From the text:
(§4) Counterscreen cell lines included a Huh-7 hepatoma cell line containing a human cytomegalovirus major immediate-early promoter-Luc construct (Huh7-CMV-Luc) and an MT4 T-cell line containing a long terminal repeat-Luc reporter (MT4-LTR-Luc).

The nature of series [4]: Counterscreen MT4-LTR-Luc. The class given is cell-based. The note with it: human.
From the text: as §4
(Counterscreens check selectivity or assay interference.)

The subject of series [5] is HCV genotype 1b replicon NS5A Y93H. Put plainly: Transient HCV 1b replicon, NS5A mutant Y93H. The class given is cell-based. The note with it: Hepatitis C virus, read-out: EC50 Y93H.
From the text: as §1, §2, §3

The subject of series [6] is HCV type 1b replicon (Huh-7 luc/neo cells). Put plainly: HCV replicon assay, stable transfection (Huh-Luc, luciferase). The class given is cell-based. The note with it: Hepatitis C virus, Huh-7, 72 h, three days incubation, average of all tests. From the text:
The compounds of formula (I) were examined for inhibitory activity in the HCV replicon. This cellular assay is based on a bicistronic expression construct, as described by Lohmann et al. (Science (1999) 285: 110-113; Journal of Virology (2003) 77: 3007-3019) with modifications described by Krieger et al. (Journal of Virology (2001) 75: 4614-4624), and Lohmann et al. (Journal of Virology (2003) 77: 3007-3019) for genotype 1b and by Yi et al. (Journal of Virology (2004) 78: 7904-7915) for genotype 1a, in a multi-target screening strategy.
The method was as follows. The assay utilized the stably transfected cell line Huh-7 luc/neo (hereafter referred to as Huh-Luc). This cell line harbors an RNA encoding a bicistronic expression construct comprising the wild type NS3-NS5B regions of HCV type 1b translated from an Internal Ribosome Entry Site (IRES) from encephalomyocarditis virus (EMCV), preceded by a reporter portion (FfL-luciferase), and a selectable marker portion (neoR, neomycine phosphotransferase). The construct is flanked by 5′ and 3′ NTRs (non-translated regions) from HCV type 1b. Continued culture of the replicon cells in the presence of G418 (neoR) is dependent on the replication of the HCV RNA. The stably transfected replicon cells that replicate HCV RNA autonomously and to high levels, encoding inter alia luciferase, were used for screening the antiviral compounds.
The replicon cells were plated in 384 well plates in the presence of the test and control compounds which were added in various concentrations. Following an incubation of three days, HCV replication was measured by assaying luciferase activity (using standard luciferase assay substrates and reagents and a Perkin Elmer ViewLux™ ultraHTS microplate imager). Replicon cells in the control cultures have high luciferase expression in the absence of any inhibitor. The inhibitory activity of the compound was monitored on the Huh-Luc cells, enabling a dose-response curve for each test compound. EC50 values were then calculated, which represent the amount of compound required to decrease the level of detected luciferase activity by 50%, or more specifically, to reduce the ability of the genetically linked HCV replicon RNA to replicate.
Where a compound of formula (I) was tested more than once in the replicon assay, the average of all test results is given in this Table 2.

Series [7] relates to HCV genotype 1b Con1 replicon (Huh-7 lunet cells). Briefly: HCV replicon assay, transient transfection, genotype 1b. The class given is cell-based. Particulars: Hepatitis C virus, 48 h, genotype 1b Con1, two days incubation, luciferase.
From the text: as §1, §3
(§5) Where a compound of formula (I) was tested more than once in the transient replicon assay, the average of all test results is given in Table 3.

Series [8] concerns HCV genotype 1b replicon NS5A L31V. Put plainly: Transient HCV 1b replicon, NS5A mutant L31V. Particulars: Hepatitis C virus, read-out: EC50 L31V. The class given is cell-based.
From the text: as §1, §2, §3

The subject of series [9] is HCV genotype 1b replicon NS5A L31F. Briefly: Transient HCV 1b replicon, NS5A mutant L31F. Particulars: Hepatitis C virus, read-out: EC50 L31F. The class given is cell-based.
From the text: as §1, §2, §3

Series [10] concerns HCV genotype 1b replicon NS5A R30H. Briefly: Transient HCV 1b replicon, NS5A mutant R30H. The class given is cell-based. Particulars: Hepatitis C virus, read-out: EC50 R30H.
From the text: as §1, §2, §3

Series [11] relates to HCV genotype 1b replicon NS5A L28T. Briefly: Transient HCV 1b replicon, NS5A mutant L28T. The class given is cell-based. The note with it: Hepatitis C virus, read-out: EC50 L28T.
From the text: as §1, §2, §3

In series [12] the test system is HCV genotype 1a H77 replicon (Huh-7 lunet cells). Briefly: HCV replicon assay, transient transfection, genotype 1a. The class given is cell-based. The note with it: Hepatitis C virus, 48 h, genotype 1a H77, two days incubation, luciferase.
From the text: as §1, §3, §5

Series [13] relates to HCV genotype 1b replicon NS5A L31M. Put plainly: Transient HCV 1b replicon, NS5A mutant L31M. The class given is cell-based. The note with it: Hepatitis C virus, read-out: EC50 L31M.
From the text: as §1, §2, §3

As usually defined, the EC50 is the concentration needed to bring the measured effect to its halfway point. The term CC50 denotes the concentration at which the toxic effect on the cells reaches its halfway point. Read a high CC50 as better tolerance by the cells. In the case of `CC[C@H](C)[C@H](NC(=O)OC)C(=O)N1CCC[C@H]1c1nc2cc(-c3ccc4cc(-c5cnc([C@@H]6CCCN6C(=O)[C@@H](NC(=O)OC)[C@@H](C)OC)[nH]5)ccc4c3)ccc2[nH]1` [Compound 18], the half-maximal effective concentration (EC50) in [1] worked out at 0.003 nM; in series [5], 0.08 nM; in [6] it was 0.003 nM; in series [7], 0.004 nM; in [8], 0.052 nM; in series [9] it was 0.005 nM. The EC50 in [10] worked out at 0.039 nM; in series [11], 0.041 nM; in series [12], 0.018 nM; in series [13], 0.054 nM. The “Liver AUC” value in series [2] stood at 14091 ng·h/g. For the same molecule, the CC50 in series [3] was determined as 8680 nM; in [4] it was 9680 nM.
